Patent US8383619B2, “Pharmaceutical compounds” (Astex Therapeutics Limited, priority 2008, dated 2013)

Key:
Experiment in all cases: Anti-proliferative assay (Oncodesign)
Assay type in all cases: cell-based
A-375 = details: Homo sapiens; A-375 (SKIN); read-out: IC50 (Concentration of test compound)
Procedure: (§1) The anti-proliferative activities of the parent compounds of the pro-drugs of the invention may be determined by measuring the ability of the compounds to inhibition of cell growth in a number of cell lines such as the human colon cancer cell line HCT116. Inhibition of cell growth is measured using the Alamar Blue assay (Nociari, M. M, Shalev, A., Benias, P., Russo, C. Journal of Immunological Methods 1998, 213, 157-167). The method is based on the ability of viable cells to reduce resazurin to its fluorescent product resorufin. For each proliferation assay cells are plated onto 96 well plates and allowed to recover for 16 hours prior to the addition of inhibitor compounds for a further 72 hours. At the end of the incubation period 10% (v/v) Alamar Blue is added and incubated for a further 6 hours prior to determination of fluorescent product at […]. In the case of the non-proliferating cell assay cells are maintained at confluence for 96 hour prior to the addition of inhibitor compounds for a further 72 hours. The number of viable cells is determined by Alamar Blue assay as before. Cell lines may be obtained from the ECACC (European Collection of cell Cultures).
(§2) The parent compound of the pro-drugs of Examples 1 to 25 i.e. (2,4-dihydroxy-5-isopropyl-phenyl)-[5-(4-methyl-piperazin-1-ylmethyl)-1,3-dihydro-isoindol-2-yl]-methanone, in the form of its L-lactate salt, was tested in anti-proliferative assays against one hundred cell lines by Oncodesign (Dijon, France). The IC50 values against each cell line are set out in the table below and the figures in the table refer to nanomolar concentrations. The compounds were tested up to a concentration of 10,000 nanomolar.

A-431 = details: Homo sapiens; A-431 (SKIN); read-out: IC50 (Concentration of test compound)
Procedure: as §1, §2

BB30-HNSCC = BB30-HNSCC (HEAD AND NECK); read-out: IC50 (Concentration of test compound)
Procedure: as §1, §2

BB49-HNSCC = BB49-HNSCC (HEAD AND NECK); read-out: IC50 (Concentration of test compound)
Procedure: as §1, §2

BB74-MEL = BB74-MEL (SKIN); read-out: IC50 (Concentration of test compound)
Procedure: as §1, §2

BV-173 = details: Homo sapiens; BV-173 (BLOOD); read-out: IC50 (Concentration of test compound)
Procedure: as §1, §2

CAMA-1 = details: Homo sapiens; CAMA-1 (BREAST); read-out: IC50 (Concentration of test compound)
Procedure: as §1, §2

CCRF-CEM/VLB = details: Homo sapiens; CCRF-CEM/VLB (BLOOD); read-out: IC50 (Concentration of test compound)
Procedure: as §1, §2

CMEL-5 = CMEL-5 (SKIN); read-out: IC50 (Concentration of test compound)
Procedure: as §1, §2

Calu-1 = details: Homo sapiens; Calu-1 (LUNG); read-out: IC50 (Concentration of test compound)
Procedure: as §1, §2

Caov-3 = details: Homo sapiens; Caov-3 (OVARY); read-out: IC50 (Concentration of test compound)
Procedure: as §1, §2

Capan-2 = details: Homo sapiens; Capan-2 (PANCREAS); read-out: IC50 (Concentration of test compound)
Procedure: as §1, §2

EHEB = EHEB (BLOOD); read-out: IC50 (Concentration of test compound)
Procedure: as §1, §2

FaDu = details: Homo sapiens; FaDu (HEAD AND NECK); read-out: IC50 (Concentration of test compound)
Procedure: as §1, §2

IGROV-1 = details: Homo sapiens; IGROV-1 (OVARY); read-out: IC50 (Concentration of test compound)
Procedure: as §1, §2

K-562/Gleevec = details: Homo sapiens, K562; K-562/Gleevec (BLOOD); read-out: IC50 (Concentration of test compound)
Procedure: as §1, §2

KB3 = KB3 (HEAD AND NECK); read-out: IC50 (Concentration of test compound)
Procedure: as §1, §2

LB11-SCLC/OC1 = LB11-SCLC/OC1 (LUNG); read-out: IC50 (Concentration of test compound)
Procedure: as §1, §2

LS 174T = details: Homo sapiens, LS174T; LS 174T (COLON); read-out: IC50 (Concentration of test compound)
Procedure: as §1, §2

MC90 = MC90 (BLOOD); read-out: IC50 (Concentration of test compound)
Procedure: as §1, §2

MCF-7/ras = details: Homo sapiens, MCF7; MCF-7/ras (BREAST); read-out: IC50 (Concentration of test compound)
Procedure: as §1, §2

MCF-7 = details: Homo sapiens, MCF7; MCF-7 (BREAST); read-out: IC50 (Concentration of test compound)
Procedure: as §1, §2

NIH: OVCAR-3 = details: Homo sapiens; NIH: OVCAR-3 (OVARY); read-out: IC50 (Concentration of test compound)
Procedure: as §1, §2

Raji = details: Homo sapiens; Raji (BLOOD); read-out: IC50 (Concentration of test compound)
Procedure: as §1, §2

SK-MEL-2 = details: Homo sapiens; SK-MEL-2 (SKIN); read-out: IC50 (Concentration of test compound)
Procedure: as §1, §2

SUP-B15 = details: Homo sapiens; SUP-B15 (BLOOD); read-out: IC50 (Concentration of test compound)
Procedure: as §1, §2

`CC(C)c1cc(C(=O)N2Cc3ccc(CN4CCN(C)CC4)cc3C2)c(O)cc1O` [(2,4-dihydroxy-5-isopropyl-phenyl)-[5-(4-methyl-piperazin-1-ylmethyl)-1,3-dihydro-isoindol-2-yl]-methanone] gave an IC50 (A-375) of 1480 nM, an IC50 (A-431) of 3800 nM and an IC50 (BB30-HNSCC) of 273 nM. For the same compound, the IC50 (BB49-HNSCC) was 146 nM, the IC50 (BB74-MEL) was 162 nM and the IC50 (BV-173) was 73 nM. The IC50 (CAMA-1) was 22 nM, the IC50 (CCRF-CEM/VLB) was > 10000 nM and the IC50 (CMEL-5) was 130 nM. It also gave an IC50 (Calu-1) of 270 nM, an IC50 (Caov-3) of 94 nM and an IC50 (Capan-2) of 144 nM. For the same compound, the IC50 (EHEB) was > 10000 nM, the IC50 (FaDu) was 29 nM and the IC50 (IGROV-1) was 109 nM. For the same compound, the IC50 (K-562/Gleevec) was 175 nM, the IC50 (KB3) was 48 nM and the IC50 (LB11-SCLC/OC1) was 17 nM. It also gave an IC50 (LS 174T) of 159 nM, an IC50 (MC90) of 93 nM and an IC50 (MCF-7/ras) of 166 nM. For the same compound, the IC50 (MCF-7) was > 10000 nM, the IC50 (NIH: OVCAR-3) was 45 nM and the IC50 (Raji) was 881 nM. The IC50 (SK-MEL-2) was 138 nM and the IC50 (SUP-B15) was 37 nM.
